Laboratory results from PubChem BioAssay AID330 (DTP/NCI, 2004).
“And” between values parts separate entries of the source, which are not always exact repeats. Identical values can stand only once. Toxic doses and inconclusive results are not listed.

System: P388 leukemia ip, CD2F1 mice, survival T/C
Assay: NCI In Vivo Anticancer Drug Screen. Data for tumor model P388 Leukemia (intraperitoneal) in CD2F1 (CDF1) mice
Conditions: endpoint: median survival time, higher = longer survival
Summary of the method: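 Mice carrying the transplanted tumor received test compound or vehicle. Survival was recorded in each group, and the value is the treated-group measurement divided by that of the vehicle-treated control group.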

[1] = dose: 60.0 mg/kg/injection, schedule: Q01DX005 (ip), vehicle: saline with Tween-80
[2] = dose: 120.0 mg/kg/injection, schedule: Q01DX005 (ip), vehicle: saline with Tween-80
[3] = dose: 240.0 mg/kg/injection, schedule: Q01DX005 (ip), vehicle: saline with Tween-80
[4] = dose: 50.0 mg/kg/injection, schedule: Q01DX005 (ip), vehicle: saline with Tween-80
[5] = dose: 100.0 mg/kg/injection, schedule: Q01DX005 (ip), vehicle: saline with Tween-80
[6] = dose: 100.0 mg/kg/injection, schedule: Q01DX009 (ip), vehicle: Klucel (hydroxypropylcellulose) (HPC)
[7] = dose: 200.0 mg/kg/injection, schedule: Q01DX005 (ip), vehicle: saline with Tween-80
[8] = dose: 50.0 mg/kg/injection, schedule: Q01DX009 (ip), vehicle: saline with Tween-80
[9] = dose: 100.0 mg/kg/injection, schedule: Q01DX009 (ip), vehicle: saline with Tween-80
[10] = dose: 200.0 mg/kg/injection, schedule: Q01DX009 (ip), vehicle: saline with Tween-80

S=C(Nc1ccccc1)SCc1ccc(Cl)cc1
T/C (dose: 50.0 mg/kg/injection, schedule: Q01DX009 (ip), vehicle: saline): 104 % of control
T/C (dose: 100.0 mg/kg/injection, schedule: Q01DX009 (ip), vehicle: saline): 103 % of control
T/C (dose: 200.0 mg/kg/injection, schedule: Q01DX009 (ip), vehicle: saline): 108 % of control

[Se]=[Re]=[Se]
T/C [1]: 96 % of control
T/C [2]: 98 % of control
T/C [3]: 109 % of control

CCOC(=O)Nc1cc(NC/C(CN(C)c2ccc(OC)cc2)=N/O)c([N+](=O)[O-])c(N)n1
T/C [4]: 86 % of control
T/C [5]: 86 % of control

CC(C)(S)C(N)C(=O)O (centres undefined)
T/C (dose: 50.0 mg/kg/injection, schedule: Q01DX009 (ip), vehicle: Klucel (hydroxypropylcellulose) (HPC)): 98 % of control
T/C [6]: 105 % of control
T/C (dose: 200.0 mg/kg/injection, schedule: Q01DX009 (ip), vehicle: Klucel (hydroxypropylcellulose) (HPC)): 94 % of control

C=C1C(=O)OC2/C=C(\C)CC/C=C(/C(=O)OC)C(OC(=O)C(C)C(C)O)C(OC(=O)C(C)(O)C(C)O)C12 (centres undefined)
T/C (dose: 6.0 mg/kg/injection, schedule: Q01DX009 (ip), vehicle: Klucel (hydroxypropylcellulose) (HPC)): 122 % of control
T/C (dose: 8.0 mg/kg/injection, schedule: Q01DX009 (ip), vehicle: Klucel (hydroxypropylcellulose) (HPC)): 122 % of control
T/C (dose: 12.0 mg/kg/injection, schedule: Q01DX009 (ip), vehicle: Klucel (hydroxypropylcellulose) (HPC)): 105 % of control

CC[CH](C)[Sn](=[O])[c]1ccccc1 (centres undefined)
T/C (dose: 0.39 mg/kg/injection, schedule: Q01DX009 (ip), vehicle: saline): 101 % of control
T/C (dose: 0.79 mg/kg/injection, schedule: Q01DX009 (ip), vehicle: saline): 117 % of control
T/C (dose: 3.12 mg/kg/injection, schedule: Q01DX009 (ip), vehicle: saline with Tween-80): 153 % of control

COC1=C(OC)C(=O)C(N2CCCCC2)=C(CO)C1=O
T/C (dose: 60.0 mg/kg/injection, schedule: Q01DX005 (ip), vehicle: saline + Tween-80 + alcohol): 88 % of control
T/C (dose: 120.0 mg/kg/injection, schedule: Q01DX005 (ip), vehicle: saline + Tween-80 + alcohol): 94 % of control
T/C (dose: 240.0 mg/kg/injection, schedule: Q01DX005 (ip), vehicle: saline + Tween-80 + alcohol): 107 % of control

Clc1cc(Cl)nc(N2CCCCC2)n1
T/C (dose: 25.0 mg/kg/injection, schedule: Q04DX003 (ip), vehicle: Klucel (hydroxypropylcellulose) (HPC)): 105 % of control
T/C (dose: 50.0 mg/kg/injection, schedule: Q04DX003 (ip), vehicle: Klucel (hydroxypropylcellulose) (HPC)): 102 % of control
T/C (dose: 100.0 mg/kg/injection, schedule: Q04DX003 (ip), vehicle: Klucel (hydroxypropylcellulose) (HPC)): 100 % of control
T/C (dose: 200.0 mg/kg/injection, schedule: Q04DX003 (ip), vehicle: Klucel (hydroxypropylcellulose) (HPC)): 105 % of control

O=c1cn[nH]c(=O)[nH]1
T/C (dose: 62.5 mg/kg/injection, schedule: Q01DX010 (ip), vehicle: saline): 100 % of control
T/C (dose: 125.0 mg/kg/injection, schedule: Q01DX010 (ip), vehicle: saline): 91 % of control
T/C (dose: 250.0 mg/kg/injection, schedule: Q01DX010 (ip), vehicle: saline): 91 % of control

Nc1c(Br)cc(Br)c2c1C(=O)c1ccccc1-2
T/C [4]: 98 % of control
T/C [5]: 91 % of control
T/C [7]: 96 % of control

CSc1cccc(NC(=O)OCCOc2ccc(-c3ccccc3)cc2)c1
T/C [6]: 87 % of control

CCC(CC)C(=O)NCC(=O)NO
T/C (dose: 25.0 mg/kg/injection, schedule: Q01DX005 (ip), vehicle: saline with Tween-80): 100 % of control
T/C [4]: 103 % of control
T/C [5]: 100 % of control
T/C [7]: 95 % of control

COC(=O)N1C=CC2ON=C(OC)C2C1c1ccccc1 (centres undefined)
T/C [4]: 98 % of control
T/C [5]: 98 % of control
T/C [7]: 101 % of control

O=c1c2ccccc2nc2n1CCC/C2=C\c1ccc(Cl)cc1
T/C (dose: 92.5 mg/kg/injection, schedule: Q04DX002 (ip), vehicle: Klucel (hydroxypropylcellulose) (HPC)): 97 % of control
T/C (dose: 185.0 mg/kg/injection, schedule: Q04DX002 (ip), vehicle: Klucel (hydroxypropylcellulose) (HPC)): 105 % of control
T/C (dose: 370.0 mg/kg/injection, schedule: Q04DX002 (ip), vehicle: Klucel (hydroxypropylcellulose) (HPC)): 97 % of control

Cc1cc(C(N)=O)c[n+](C)c1
T/C (dose: 50.0 mg/kg/injection, schedule: Q01DX005 (ip), vehicle: saline): 100 % of control
T/C (dose: 100.0 mg/kg/injection, schedule: Q01DX005 (ip), vehicle: saline): 105 % of control
T/C (dose: 200.0 mg/kg/injection, schedule: Q01DX005 (ip), vehicle: saline): 107 % of control

COc1ccc(S(N)(=O)=O)cc1C(=O)N1CCN2CCCC2C1 (centres undefined)
T/C (dose: 60.0 mg/kg/injection, schedule: Q01DX005 (ip), vehicle: saline): 100 % of control
T/C (dose: 120.0 mg/kg/injection, schedule: Q01DX005 (ip), vehicle: saline): 100 % of control
T/C (dose: 240.0 mg/kg/injection, schedule: Q01DX005 (ip), vehicle: saline): 94 % of control

COc1ccc2ccc3ccc(OC)nc3c2n1
T/C [1]: 92 % of control
T/C [2]: 95 % of control
T/C [3]: 108 % of control

[Cu+2].[NH-]C(CO)C(=O)O.[NH-]C(Cc1cnc[nH]1)C(=O)O (centres undefined)
T/C (dose: 6.25 mg/kg/injection, schedule: Q01DX009 (ip), vehicle: saline): 97 % of control
T/C (dose: 25.0 mg/kg/injection, schedule: Q01DX009 (ip), vehicle: saline): 114 % of control

CCCCCCCS(=O)(=O)OCCCCOS(=O)(=O)CCCCCCC
T/C (dose: 45.0 mg/kg/injection, schedule: Q01DX005 (ip), vehicle: acetone): 99 % of control
T/C (dose: 90.0 mg/kg/injection, schedule: Q01DX005 (ip), vehicle: acetone): 100 % of control
T/C (dose: 180.0 mg/kg/injection, schedule: Q01DX005 (ip), vehicle: acetone): 99 % of control

OC1CCC(C2C3CCCCC3C3CCCCC3C2C2CCC(O)CC2)CC1 (centres undefined)
T/C [4]: 99 % of control
T/C [5]: 99 % of control

COc1cc(C(Nc2ccccn2)c2cc3c(cc2OC(C)=O)OCO3)cc(OC)c1OC (centres undefined)
T/C [1]: 104 % of control
T/C [2]: 97 % of control
T/C [3]: 88 % of control

CC[C@@]1(O)C[C@H](OC2CC(N(C)C)C(O)C(C)O2)c2c(O)c3c(c(O)c2[C@H]1OC1CC(N(C)C)C(O)C(C)O1)C(=O)c1cccc(O)c1C3=O (some centres undefined)
T/C (dose: 0.03 mg/kg/injection, schedule: Q01DX009 (ip), vehicle: other): 118 % of control
T/C (dose: 0.03 mg/kg/injection, schedule: Q04DX003 (ip), vehicle: other): 112 % of control
T/C (dose: 0.06 mg/kg/injection, schedule: Q04DX003 (ip), vehicle: other): 114 % of control
T/C (dose: 0.13 mg/kg/injection, schedule: Q04DX003 (ip), vehicle: other): 124 % of control
T/C (dose: 0.25 mg/kg/injection, schedule: Q04DX003 (ip), vehicle: other): 121 % of control
T/C (dose: 0.5 mg/kg/injection, schedule: Q04DX003 (ip), vehicle: other): 93 % of control

CC(C)C(C(=O)CCN(C)C)c1ccc(Cl)cc1 (centres undefined)
T/C [4]: 116 % of control
T/C [5]: 100 % of control

Cc1cc(O)c(C)c(C(=O)O)c1
T/C [8]: 99 % of control
T/C [9]: 99 % of control
T/C [10]: 92 % of control

Nc1ccc(S(=O)(=O)Nc2nc(/C=C/c3ccccc3)cc(-c3cc(/C=C/c4ccccc4)nc(NS(=O)(=O)c4ccc(N)cc4)n3)n2)cc1
T/C [1]: 94 % of control
T/C [2]: 95 % of control
T/C [3]: 94 % of control

O=C1C=CC(=O)N1n1cccc1
T/C (dose: 6.25 mg/kg/injection, schedule: Q01DX009 (ip), vehicle: Klucel (hydroxypropylcellulose) (HPC)): 105 % of control
T/C (dose: 12.5 mg/kg/injection, schedule: Q01DX009 (ip), vehicle: Klucel (hydroxypropylcellulose) (HPC)): 98 % of control
T/C (dose: 25.0 mg/kg/injection, schedule: Q01DX009 (ip), vehicle: Klucel (hydroxypropylcellulose) (HPC)): 90 % of control

O=C(Nc1ccc(Cl)cc1)Nc1nnc(/C=C/c2ccccc2)o1
T/C [1]: 96 % of control
T/C [2]: 96 % of control

CC1=NN(C(=O)c2cccnc2)C(=O)C1N=Nc1ccc(S(=O)(=O)Nc2nc(C)cc(C)n2)cc1 (centres undefined)
T/C [8]: 101 % of control
T/C [9]: 99 % of control
T/C [10]: 99 % of control

CCCCCC1c2cc(O)ccc2OC1N1CCOCC1 (centres undefined)
T/C (dose: 12.5 mg/kg/injection, schedule: Q01DX009 (ip), vehicle: saline with Tween-80): 105 % of control
T/C (dose: 25.0 mg/kg/injection, schedule: Q01DX009 (ip), vehicle: saline with Tween-80): 101 % of control
T/C [8]: 113 % of control and 120 % of control
T/C [9]: 119 % of control and 124 % of control

NC(=O)c1sc2ncccc2c1N
T/C [1]: 96 % of control
T/C [2]: 92 % of control
T/C [3]: 96 % of control
